From paper PMC11519910, “Semisynthetic Ecdysteroid Cinnamate Esters and tert-Butyl Oxime Ether Derivatives with Trypanocidal Activity” (Journal of Natural Products, 2024)
Read-outs that look alike come from different tables or passages of the source.

What was measured:
T. cruzi = tested on: T. cruzi; parameters: method as in PMID 30517542; settings: free acid forms; read-out: IC50, antitrypanosomal activity; cited from earlier work
T. cruzi epimastigotes = test: Trypanocidal activity against epimastigotes (XTT); format: cell-based, Trypanosoma cruzi; settings: for inhibition at 5 µM: read-out: inhibition of epimastigote proliferation; for IC50: 72 h incubation, read-out: IC50, epimastigote proliferation
Description: Trypanocidal activity against epimastigotes was assessed by XTT (2,3-bis(2-methoxy-4-nitro-5-sulfophenyl)-2H-tetrazolium-5-carboxanilide). Briefly, 1.5 × 10^6 epimastigotes were seeded per well in 96-well plates. The ecdysteroid was added at 8 concentrations ranging from 25 to 0.2 μM for 72 h at 28 °C. […] Following the incubation period, the plates were examined under the microscope for sterility and growth of controls. To the plates, 50 μL of XTT and PMS (phenazine methosulfate, Sigma-Aldrich, MO, USA) solution (XTT and PMS at 0.5 and 0.025 mg/mL, respectively) was added, and the plates were then incubated at 28 °C for 3 h. The parasites were fixed by the addition of 50 μL of MeOH for 15 min before the absorbance was measured at 490 nm on a Tecan plate reader. Results were expressed as percentage cell viability relative to the vehicle control or IC50 values calculated by GraphPad Prism version 8.0. All assessments were performed in triplicates in three independent experiments.

[1] = tested on: T. cruzi amastigotes in CCL39 fibroblasts; test: Fluorescence microscopy of amastigote replication in infected CCL39 fibroblasts; format: cell-based, Trypanosoma cruzi; settings: 5 μM, of infection
Description: The host CCL39 cells were seeded in 24-well plates at a density of 20,000 cells/mL. The cells were allowed to adhere for 24 h and infected with trypomastigotes at a multiplicity of 10. On the next day, non-internalized trypomastigotes were washed away, and fresh RPMI with 2% hiFBS was added to the wells along with the test substance. […] The images were analyzed on ImageJ.

RAW264.7 cells = test: cells; format: cell-based
Description: Cytotoxicity or antiproliferative effects of ecdysteroid against mammalian cells was assessed using MTT (3-(4,5-dimethylthiazol-2-yl)-2,5-diphenyltetrazolium bromide). CHO or RAW264.7 cells were used for screening the compounds. Briefly, the cells were seeded at a density of 2000/well in 96-well plates. After 24 h of incubation at 37 °C and 5% CO2, ecdysteroid ([…]) was added to the cells at various concentrations. In all the experiments, podophyllotoxin was used as the positive control. In all experiments, vehicle controls were included, and the final DMSO concentration was below 0.5%. After 72 h, the plates were examined under an inverted microscope for sterility and growth of controls after the incubation period. The spent medium was removed, and 100 μL of fresh medium containing 0.5 mg/mL of the final concentration of MTT was added to the cells. The plates were incubated for 4 h at 37 °C in 5% CO2. The formazan crystals were solubilized by adding 200 μL of DMSO and mixed thoroughly. The absorbance was determined at 550 nm by using a Tecan plate reader. The values were corrected to the blank medium and vehicle control (DMSO only). Results were expressed as percentage cell viability relative to the vehicle control. Each assay was performed in technical triplicate in three independent experiments.

[2] = tested on: T. cruzi (GFPY parasite release in trypomastigote-infected RAW264.7 cells); test: FACS-based quantitation of released parasites from infected RAW264.7 cells; format: cell-based, Trypanosoma cruzi
Description: The host RAW264.7 cells were seeded in 24-well plates at a density of 20,000 cells/mL. The cells were allowed to adhere for 24 h and infected with trypomastigotes at a multiplicity of 10. On the next day, noninternalized trypomastigotes were washed away, and fresh RPMI with 2% hiFBS was added to the wells along with the C44 at various concentrations. […] Three independent experiments in triplicates were performed to determine the activity of the ecdysteroid.

| SMILES | IC50 (T. cruzi) | inhibition at 5 µM (T. cruzi epimastigotes; Trypanosoma cruzi, 72 h) | other results |
| --- | --- | --- | --- |
| COc1cc(C=CC(=O)O)cc(OC)c1OC [3,4,5-trimethoxycinnamic acid] | > 600 µM |  |  |
| COc1ccc(C=CC(=O)O)cc1 [4-methoxycinnamic acid (p-coumaric acid), 4-methoxycinnamic acid] | > 600 µM |  |  |
| CC(C)(O)CC[C@H]1OC(C)(C)O[C@]1(C)[C@H]1CC[C@@]2(O)C3=C/C(=N\OC(C)(C)C)[C@@H]4C[C@H]5OC(C)(C)O[C@H]5C[C@]4(C)[C@H]3CC[C@]12C [Compound 24] |  | ≥ 30% |  |
| CC(C)(O)CC[C@H]1OC(C)(C)O[C@]1(C)[C@H]1CC=C2C3=C/C(=N/OC(C)(C)C)[C@@H]4C[C@H]5OC(C)(C)O[C@H]5C[C@]4(C)[C@H]3CC[C@@]21C [Compound 28] |  | ≥ 30% |  |
| CC(C)(O)CC[C@@H](OC(=O)/C=C/c1ccccc1)[C@](C)(O)[C@H]1CC[C@@]2(O)C3=CC(=O)[C@@H]4C[C@@H](OC(=O)/C=C/c5ccccc5)[C@@H](O)C[C@]4(C)[C@H]3CC[C@]12C [Compound 39] |  | ≥ 30% |  |
| CC(C)(O)CC[C@@H](OC(=O)/C=C/c1ccccc1)[C@](C)(O)[C@H]1CC[C@@]2(O)C3=CC(=O)[C@@H]4C[C@@H](O)[C@@H](OC(=O)/C=C/c5ccccc5)C[C@]4(C)[C@H]3CC[C@]12C [Compound 40] |  | ≥ 30% |  |
| CC(C)(O)CC[C@@H](O)[C@](C)(O)[C@H]1CC=C2C3=C/C(=N\OC(C)(C)C)[C@@H]4C[C@@H](O)[C@@H](O)C[C@]4(C)[C@H]3CC[C@@]21C [Compound 42] |  | < 30% |  |
| CC(C)(O)CC[C@@H](O)[C@](C)(O)[C@H]1CC=C2C3=C/C(=N/OC(C)(C)C)[C@@H]4C[C@@H](O)[C@@H](O)C[C@]4(C)[C@H]3CC[C@@]21C [Compound 43] |  | < 30% |  |
| CC(C)(O)CC[C@@H](O)[C@](C)(O)[C@H]1CC=C2C3=C/C(=N\OC(C)(C)C)[C@@H]4C[C@@H](O)[C@@H](OC(=O)/C=C/c5ccccc5)C[C@]4(C)[C@H]3CC[C@@]21C [Compound 44] |  |  | inhibition of amastigote replication [1]: efficiently inhibits amastigote replication; cytotoxicity on the host cells (RAW264.7 cells): moderate cytotoxicity; IC50 (RAW264.7 cells; Mus musculus, RAW264.7, MTT, 72 h of incubation, read-out: IC50, cell proliferation in RAW264.7 cells): 11.6 ± 1.6 µM; selectivity, T. cruzi over RAW264.7 host macrophages (RAW264.7 cells; apparent selectivity, cytotoxicity toward T. cruzi vs host cells): more than 5 fold; IC50 (T. cruzi epimastigotes): 1.7 ± 0.2 µM; IC50 (T. cruzi epimastigotes; Trypanosoma cruzi, 72 h): < 2 µM; IC50 ([2]; Trypanosoma cruzi, 144 h, trypomastigote-infected RAW264.7 cells, FACS after 6 days): 2.7 ± 0.1 µM; inhibition of trypomastigote release ([2]; infected RAW264.7 cells): more than 95% |
| COc1ccc(/C=C/C(=O)O)c(OC)c1 [trans-2,4-dimethoxycinnamic acid] | > 600 µM |  |  |
